Experiments:
[1] = target: T1, Tyrosine-protein kinase ITK/TSK (Homo sapiens, UniProt Q08881)
T1 sequence (Q08881 whole entry): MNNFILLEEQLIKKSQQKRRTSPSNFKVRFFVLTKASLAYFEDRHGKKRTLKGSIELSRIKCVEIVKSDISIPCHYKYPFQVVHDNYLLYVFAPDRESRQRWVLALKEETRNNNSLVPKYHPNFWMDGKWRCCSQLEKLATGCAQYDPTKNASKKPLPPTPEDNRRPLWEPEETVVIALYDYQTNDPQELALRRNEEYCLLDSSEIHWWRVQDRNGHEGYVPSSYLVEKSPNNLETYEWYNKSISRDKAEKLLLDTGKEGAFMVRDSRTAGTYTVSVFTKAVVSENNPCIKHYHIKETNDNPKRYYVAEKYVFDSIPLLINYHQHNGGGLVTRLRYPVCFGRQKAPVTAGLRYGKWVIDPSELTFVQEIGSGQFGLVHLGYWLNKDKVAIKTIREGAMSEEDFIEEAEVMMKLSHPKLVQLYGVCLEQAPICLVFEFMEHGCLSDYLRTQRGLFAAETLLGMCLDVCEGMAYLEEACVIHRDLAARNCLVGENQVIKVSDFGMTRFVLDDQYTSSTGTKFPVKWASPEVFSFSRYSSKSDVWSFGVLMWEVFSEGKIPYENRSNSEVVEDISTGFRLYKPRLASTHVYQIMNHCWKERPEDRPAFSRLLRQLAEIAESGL

[2] = target: T2, Tyrosine-protein kinase Tec (Homo sapiens, UniProt P42680)
T2 sequence (P42680 whole entry): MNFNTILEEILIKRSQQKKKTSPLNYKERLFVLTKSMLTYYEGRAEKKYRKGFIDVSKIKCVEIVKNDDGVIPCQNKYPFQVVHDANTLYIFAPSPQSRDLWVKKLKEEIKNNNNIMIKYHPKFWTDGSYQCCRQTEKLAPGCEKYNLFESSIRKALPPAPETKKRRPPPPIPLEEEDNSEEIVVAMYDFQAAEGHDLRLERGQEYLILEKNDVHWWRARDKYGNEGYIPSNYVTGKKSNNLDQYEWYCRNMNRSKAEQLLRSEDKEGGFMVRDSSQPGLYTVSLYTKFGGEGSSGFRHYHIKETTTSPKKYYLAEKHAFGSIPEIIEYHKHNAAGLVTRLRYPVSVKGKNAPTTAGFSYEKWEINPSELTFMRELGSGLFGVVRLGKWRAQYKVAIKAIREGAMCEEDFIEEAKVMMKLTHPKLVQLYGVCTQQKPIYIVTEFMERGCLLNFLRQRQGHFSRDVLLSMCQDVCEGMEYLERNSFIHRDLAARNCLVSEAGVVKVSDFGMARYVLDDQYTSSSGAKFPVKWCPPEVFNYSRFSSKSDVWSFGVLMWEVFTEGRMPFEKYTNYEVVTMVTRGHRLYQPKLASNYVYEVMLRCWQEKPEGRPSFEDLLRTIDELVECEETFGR

[3] = target: Tyrosine-protein kinase BTK (Homo sapiens, UniProt Q06187); test: BTK Kinase Assay
Procedure: (§1) 1. Reaction conditions: buffer conditions: 20 mM HEPES (pH 7.5), 10 mM MgCl2, 1 mM EGTA, 0.02% Brij35, 0.02 mg/mL BSA, 0.1 mm Na3VO4, 2 mm DTT, 1% DMSO.2. Reaction procedure:2.1. Preparing an indicator substrate in a freshly prepared reaction buffer 2.2. Delivering the desired cofactor to the above substrate solution 2.3. Delivering the indicated kinase to the substrate solution and gently mixing same 2.4. Delivering the compounds in DMSO to the kinase reaction mixture using acoustic technology (Echo550) 2.5. Initiating the reaction (final concentration of ATP: 5 μM) by delivering 33P-ATP (final specific activity: 0.01 μci/μL) to the reaction mixture 2.6. Incubating the kinase reaction at room temperature for 120 minutes 2.7. Recording the reaction on P81 ion exchange paper (Whatman #3698-915) 2.8. Washing the filter widely with 0.75% phosphoric acid 2.9. Measuring the radioactive phosphorylated substrate remaining on the filter paper. 3.Data analysis: the kinase activity data is expressed as the percentage of the remaining kinase activity in a test sample compared to a reaction with a carrier (dimethyl sulfoxide), and IC50 values and curve fitting are obtained using Prism4 software (GraphPad).

[4] = target: Epidermal growth factor receptor (Homo sapiens, UniProt P00533); test: EGFR, ITK and TEC Kinase Assay
Procedure: as §1, with “DMSO. 2.” for “DMSO.2.”, “ATP: 2 μM,” for “ATP:”, “μM and 5 μM respectively)” for “μM)”, “3. Data” for “3.Data”

Tyrosine-protein kinase BTK, sequence (Q06187 whole entry): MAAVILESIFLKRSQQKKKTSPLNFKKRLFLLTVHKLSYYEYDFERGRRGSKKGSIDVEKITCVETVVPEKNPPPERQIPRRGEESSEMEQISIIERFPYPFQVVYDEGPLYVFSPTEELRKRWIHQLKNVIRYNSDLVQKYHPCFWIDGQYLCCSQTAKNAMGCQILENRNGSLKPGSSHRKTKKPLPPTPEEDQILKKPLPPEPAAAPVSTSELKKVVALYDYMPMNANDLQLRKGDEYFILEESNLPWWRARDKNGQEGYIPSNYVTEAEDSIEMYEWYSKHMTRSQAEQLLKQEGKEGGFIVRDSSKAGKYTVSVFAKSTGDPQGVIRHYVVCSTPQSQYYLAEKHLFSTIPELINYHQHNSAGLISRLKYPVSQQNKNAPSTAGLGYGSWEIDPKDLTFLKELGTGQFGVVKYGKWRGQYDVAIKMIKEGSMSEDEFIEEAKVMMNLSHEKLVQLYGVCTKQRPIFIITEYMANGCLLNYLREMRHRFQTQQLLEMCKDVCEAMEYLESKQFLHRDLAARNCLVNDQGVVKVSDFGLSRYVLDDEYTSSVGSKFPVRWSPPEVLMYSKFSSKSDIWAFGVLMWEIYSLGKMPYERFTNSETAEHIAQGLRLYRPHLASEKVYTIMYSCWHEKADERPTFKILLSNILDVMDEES
Epidermal growth factor receptor, sequence (P00533 whole entry): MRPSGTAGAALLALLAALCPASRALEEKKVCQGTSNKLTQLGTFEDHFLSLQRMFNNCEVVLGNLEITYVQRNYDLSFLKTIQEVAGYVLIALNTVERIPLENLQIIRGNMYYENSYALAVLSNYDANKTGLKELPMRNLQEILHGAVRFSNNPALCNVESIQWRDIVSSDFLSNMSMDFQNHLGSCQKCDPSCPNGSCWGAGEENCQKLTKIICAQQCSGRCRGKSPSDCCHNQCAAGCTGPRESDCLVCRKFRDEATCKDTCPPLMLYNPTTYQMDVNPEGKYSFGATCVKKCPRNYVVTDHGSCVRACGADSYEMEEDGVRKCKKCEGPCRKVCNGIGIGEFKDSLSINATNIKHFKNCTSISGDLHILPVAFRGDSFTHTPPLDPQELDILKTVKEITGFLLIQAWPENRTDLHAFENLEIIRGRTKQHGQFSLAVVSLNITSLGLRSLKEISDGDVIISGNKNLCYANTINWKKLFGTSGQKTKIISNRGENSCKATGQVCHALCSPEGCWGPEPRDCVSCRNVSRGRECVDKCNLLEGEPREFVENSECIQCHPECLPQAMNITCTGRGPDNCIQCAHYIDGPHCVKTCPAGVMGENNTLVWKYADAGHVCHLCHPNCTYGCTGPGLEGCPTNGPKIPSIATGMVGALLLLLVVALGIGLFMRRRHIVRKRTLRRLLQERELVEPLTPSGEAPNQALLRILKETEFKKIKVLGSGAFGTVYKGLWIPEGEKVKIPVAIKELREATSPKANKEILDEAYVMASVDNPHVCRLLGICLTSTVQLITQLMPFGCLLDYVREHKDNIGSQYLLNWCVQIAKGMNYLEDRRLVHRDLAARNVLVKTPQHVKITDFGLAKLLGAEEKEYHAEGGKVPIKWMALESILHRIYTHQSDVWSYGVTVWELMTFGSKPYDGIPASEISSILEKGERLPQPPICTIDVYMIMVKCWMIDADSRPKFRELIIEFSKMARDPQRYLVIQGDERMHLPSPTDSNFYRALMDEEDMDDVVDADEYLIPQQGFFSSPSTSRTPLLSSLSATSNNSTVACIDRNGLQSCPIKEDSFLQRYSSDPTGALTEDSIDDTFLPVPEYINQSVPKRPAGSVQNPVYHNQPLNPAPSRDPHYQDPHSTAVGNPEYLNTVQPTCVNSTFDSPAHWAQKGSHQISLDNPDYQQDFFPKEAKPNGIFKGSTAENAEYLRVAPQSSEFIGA

| IC50 [1] | IC50 [2] | IC50 [3] | IC50 [4] | Compound |
| --- | --- | --- | --- | --- |
| 42.2 nM | 3.39 nM | 0.73 nM | 14.5 nM | C=CC(=O)N1CCC[C@@H](c2nn(-c3ccc(Oc4ccccc4)cc3)c3c(N)nccc23)C1 [US11739090, Compound 7A] |
| 1450 nM | 3.74 nM | 0.93 nM | 33.3 nM | C=CC(=O)N1CCC[C@H](c2nn(-c3ccc(Oc4ccccc4)cc3)c3c(N)nccc23)C1 [US11739090, Compound 7B] |
